# Experimental data from US10220005B2 (GW Research Limited, priority 2012, dated 2019).
# What was measured:
# [1] = tested on: piglet model of HI; assay: Piglet model of HI, Nissl staining of brain slices (Example 1); format: in vivo; conditions: piglets; for effect of co-administered antagonist on the CBD-induced reduction of neuronal death: given with CBD 1 mg/kg i.v., AM630 1 mg/kg, WAY100635 0.1 mg/kg, caffeine 10 mg/kg
# Protocol: (§1) A piglet model of HI was used as described in (Alvarez et al. 2008). Briefly, an HI insult is induced in anesthetized 1-3 day-old piglets by occluding both carotid arteries and decreasing inspired oxygen from 21 to 10% for 30 min.
# (§2) Thirty minutes after the recovery of HI the test compound was administered via the i.v. route.
# (§3) At the end of the experiment, piglets are euthanized and the brain removed; one hemisphere was immediately frozen and stored at −80 ° C. whereas the other one was preserved in 4% paraformaldehide. A sample of frozen brain was obtained to perform a proton magnetic resonance spectroscopy (H+-MRS). Similarly managed piglets but without HI served as controls.
# [2] = tested on: interleukin 1; assay: Piglet model of HI, interleukin 1 in brain tissue by microarrays; format: in vivo; conditions: piglets
# Protocol: as §1, §2, §3
# [3] = tested on: rat model of HI; assay: Rat model of HI, neurobehavioral tests (rotarod, cylinder, novel object); format: in vivo, Wistar rats; conditions: rats, CBD 1 mg/kg s.c. single dose, tests at day 35
# Protocol: (§4) A rat model of HI was used as described by (Fernandez-Lopez et al., 2007). Briefly, an HI insult is induced in 7-10 day-old Wistar rats by electro-coagulating the left carotid artery under anaesthesia following by the exposure to 10% oxygen for 120 min.
# Sham operated pups without hypoxia served as controls, and were treated with vehicle or CBD as indicated. The pups were then returned to their dams.
# At day 35 rats underwent neurobehavioral tests: rotarod (to test coordination), cylinder (to test unilateral deficits) and novel object preference (to test memory impairments).
# [4] = tested on: rat model of HI; assay: Rat model of HI, magnetic resonance imaging of brain lesion; format: in vivo, Wistar rats; conditions: rats, CBD 1 mg/kg s.c. single dose, one month later (P37)
# Protocol: as §4
# The pups were then returned to their dams.
# Rats were then euthanized and the brain removed and stored in 4% paraforlmadehide. Magnetic resonance imaging was performed on the brains to evaluate the damaged area. In some rats, MRI was performed 7 days after HI.
smiles,measurement,setting,value
COc1ccc(C(=O)c2c(C)n(CCN3CCOCC3)c3cc(I)ccc23)cc1 [AM],effect of co-administered antagonist on the CBD-induced reduction of neuronal death,[1],blunted
same,effect of co-administered antagonist on the CBD reduction of IL-1 production,"[2]; given with CBD 1 mg/kg i.v., AM630 1 mg/kg, WAY100635 0.1 mg/kg, caffeine 10 mg/kg",blunted
COc1ccccc1N1CCN(CCN(C(=O)C2CCCCC2)c2ccccn2)CC1 [WAY],effect of co-administered antagonist on the CBD-induced reduction of neuronal death,[1],blunted
"C=C(C)[C@@H]1CCC(C)=C[C@H]1c1c(O)cc(CCCCC)cc1O [CBD, cannabidiol]",percentage of necrotic tissue in both the cortex and the hippocampus,"[1]; CBD 1 mg/kg i.v. 30 min after HI, brain tissue 6 h after HI",reduces
same,production of IL-1 (concentration of interleukin 1 in brain tissue),"[2]; CBD 1 mg/kg i.v., 6 h after HI, microarrays",reduces
same,coordination (RotaRod),[3],normalization
same,memory (novel object recognition),[3],normalization
same,motor performance (cylinder rear test),[3],normalization
same,volume of lesion (MRI; printed as brain volume),[4],significantly reduced
"Cn1c(=O)c2c(ncn2C)n(C)c1=O [caffeine, Caffeine]",effect of co-administered antagonist on the CBD-induced reduction of neuronal death,[1],not by caffeine
